Test [1] deals with BDF1 mice, P388 leukemia ip, median survival T/C. Nature of the test: NCI In Vivo Anticancer Drug Screen. Data for tumor model P388 Leukemia (intraperitoneal) in B6D2F1 (BDF1) mice. The note with it: endpoint: median survival time, higher = longer survival. Put shortly: (§1)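 Survival ratio, drug arm over vehicle arm, in mice with a transplanted tumour.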
The subject of test [2] is BDF1 mice, P388 leukemia ip. The description is as above. The note with it: endpoint: mean survival time, higher = longer survival. The essentials: as §1

Drawing on PubChem BioAssay AID328 (DTP/NCI, 2004), this text covers T/C for two compounds.

Inconclusive results and toxic doses are left out.

As for `CCC1(O)CC(OC2CC(N(C)C)C(OC3CC4OC5CC(=O)C(C)OC5OC4C(C)O3)C(C)O2)c2c(cc3c(c2O)C(=O)c2c(O)ccc(O)c2C3=O)C1C(=O)OC` (stereo not drawn), the T/C is 104 % of control in test [1] (dose: 0.75 mg/kg/injection, schedule: Q01DX001 (ip), vehicle: saline); 121 % of control in test [1] (dose: 0.86 mg/kg/injection, schedule: Q04DX003 (ip), vehicle: water); 114 % of control in test [1] (dose: 1.25 mg/kg/injection, schedule: Q01DX001 (ip), vehicle: saline); 157 % of control in test [1] (dose: 1.3 mg/kg/injection, schedule: Q04DX003 (ip), vehicle: water); 109 % of control in test [1] (dose: 1.5 mg/kg/injection, schedule: Q01DX001 (ip), vehicle: saline); 155 % of control in test [1] (dose: 1.73 mg/kg/injection, schedule: Q04DX003 (ip), vehicle: water). Moreover, the T/C in test [1] (dose: 2.16 mg/kg/injection, schedule: Q04DX003 (ip), vehicle: water) is 191 % of control; in test [1] (dose: 2.4 mg/kg/injection, schedule: Q04DX003 (ip), vehicle: water), 165 % of control; in test [1] (dose: 5.0 mg/kg/injection, schedule: Q01DX001 (ip), vehicle: saline), 166 % of control; in test [1] (dose: 10.0 mg/kg/injection, schedule: Q01DX001 (ip), vehicle: saline) it was 195 % of control; in test [2] (dose: 0.09 mg/kg/injection, schedule: Q01DX010 (ip), vehicle: saline), 111 % of control; in test [2] (dose: 0.38 mg/kg/injection, schedule: Q01DX010 (ip), vehicle: saline) it was 95 % of control. The T/C in test [2] (dose: 1.5 mg/kg/injection, schedule: Q01DX010 (ip), vehicle: saline) was 87 % of control.

For `CCN(CC)CCCC(C)NC(=O)c1cccc2c(N)cccc12` (stereo not drawn), the T/C in test [1] (dose: 25.0 mg/kg/injection, schedule: Q04DX003 (ip), vehicle: water) was 91 % of control; in test [1] (dose: 50.0 mg/kg/injection, schedule: Q04DX003 (ip), vehicle: water), 106 % of control; in test [1] (dose: 100.0 mg/kg/injection, schedule: Q04DX003 (ip), vehicle: water), 97 % of control; in test [1] (dose: 200.0 mg/kg/injection, schedule: Q04DX003 (ip), vehicle: water) it was 100 % of control; in test [1] (dose: 400.0 mg/kg/injection, schedule: Q04DX003 (ip), vehicle: water) it was 104 % of control; in test [2] (dose: 25.0 mg/kg/injection, schedule: Q01DX009 (ip), vehicle: water) it was 98 % of control. The T/C is 106 % of control in test [2] (dose: 50.0 mg/kg/injection, schedule: Q01DX009 (ip), vehicle: water); 93 % of control in test [2] (dose: 100.0 mg/kg/injection, schedule: Q01DX009 (ip), vehicle: water); 91 % of control in test [2] (dose: 200.0 mg/kg/injection, schedule: Q01DX009 (ip), vehicle: water); 110 % of control in test [2] (dose: 400.0 mg/kg/injection, schedule: Q01DX009 (ip), vehicle: water).
